The results in this text go back to US8889702B2, “Derivatives of azaspiranyl-alkylcarbamates of 5-member heterocyclic compounds, preparation thereof and therapeutic use thereof” (Sanofi, priority 2009, dated 2014).

Structures are written as SMILES. pIC50: −log10 of the molar value.

Series [1] addresses T1, enzyme FAAH (Fatty Acid Amide Hydrolase) (Mus musculus, UniProt O08914).
T1 construct: The membrane homogenates are prepared extemporaneously by homogenizing the tissues; from tissue; host or cells: mouse brain (minus the cerebellum), membrane homogenate
T1 sequence (O08914 1-579): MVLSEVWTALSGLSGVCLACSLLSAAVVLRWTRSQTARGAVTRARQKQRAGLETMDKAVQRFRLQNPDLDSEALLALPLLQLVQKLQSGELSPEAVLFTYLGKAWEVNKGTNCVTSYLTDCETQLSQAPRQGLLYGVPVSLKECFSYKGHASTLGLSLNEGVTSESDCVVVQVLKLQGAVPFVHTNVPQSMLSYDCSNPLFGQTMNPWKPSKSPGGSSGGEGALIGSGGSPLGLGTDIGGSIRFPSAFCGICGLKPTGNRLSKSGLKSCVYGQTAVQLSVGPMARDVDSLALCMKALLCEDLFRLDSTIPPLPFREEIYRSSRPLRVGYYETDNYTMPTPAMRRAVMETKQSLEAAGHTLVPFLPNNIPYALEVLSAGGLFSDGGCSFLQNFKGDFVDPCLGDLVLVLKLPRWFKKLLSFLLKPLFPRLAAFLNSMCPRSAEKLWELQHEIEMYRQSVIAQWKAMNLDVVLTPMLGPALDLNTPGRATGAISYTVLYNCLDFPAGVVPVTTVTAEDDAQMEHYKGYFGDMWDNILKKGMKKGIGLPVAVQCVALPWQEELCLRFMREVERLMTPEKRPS
The experiment in a line: radioenzymatic test: hydrolysis of anandamide [ethanolamine 1-3H] with FAAH, mouse brain membrane homogenates. As to conditions: mouse brain membrane homogenate; preincubation 20 minutes at 25° C.; anandamide 10 μM; read-out: IC50 (concentration that inhibits 50% of the control enzymatic activity of FAAH). In kind it is biochemical. On the procedure:
The compounds of the invention underwent pharmacological tests to determine their inhibitory effect on the enzyme FAAH (Fatty Acid Amide Hydrolase).
Thus, mouse brains (minus the cerebellum) are removed and stored at −80° C. The membrane homogenates are prepared extemporaneously by homogenizing the tissues using a Precellys® machine in reaction buffer (10 mM Tris-HCl, pH=8, 150 mM NaCl and 1 mM ethylenediaminetetraacetic acid (EDTA)). The enzymatic reaction is performed in 96-well Multiscreen filtration plates in a final volume of 70 μL. Reaction buffer supplemented with fatty acid-free bovine serum albumin (BSA, 1 mg/ml) is used for the enzymatic reaction and the dilution of the compounds and of the anandamide [ethanolamine 1-^3H]. The reaction buffer containing BSA (43 μL/well), the diluted test compounds at different concentrations (7 μL/well containing 1% DMSO) and the membrane preparation (10 μL/well, i.e. 200 μg of tissue per test) are successively added to the wells. After preincubation for 20 minutes of the compounds with the enzyme at 25° C., the reaction is started by adding anandamide [ethanolamine 1-^3H]. (Specific activity of 15-20 Ci/mmol) diluted with cold anandamide (10 μL/well, final concentration of 10 μM, 0.01 μCi per test). After incubation for 20 minutes at 25° C., the enzymatic reaction is stopped by adding a […] of active charcoal prepared in 1.5M NaCl buffer and 0.5 M HCl (50 μL/well). The mixture is stirred for 10 minutes and the aqueous phase containing the ethanolamine [1-^3H] is then recovered by filtration under vacuum and counted by liquid scintillation.

The test system of series [2] is male OF1 mice. Briefly: test of analgesia: abdominal stretching induced with PBQ (phenylbenzoquinone). Type of series: in vivo, mouse. As to conditions: 30 mg/kg p.o. at 120 minutes. On the procedure: The in vivo activity of the compounds of the invention was evaluated in a test of analgesia.
Thus, the intraperitoneal (i.p.) administration of PBQ (phenylbenzoquinone, 2 mg/kg in 0.9% sodium chloride solution containing 5% ethanol) to male OF1 mice weighing 25 to 30 g causes abdominal stretching, on average 30 torsions or contractions within a period of 5 to 15 minutes after injection. The test compounds are administered orally (p.o.) or intraperitoneally (i.p.) suspended in Tween 80 at 0.5%, 60 minutes or 120 minutes before the administration of PBQ. Under these conditions, the compounds of the invention that are the most powerful reduce by 35% to 80% the number of stretches induced with PBQ, over a dose range of between 1 and 30 mg/kg.
For example, compound 5 of Table 1 reduces by 50% the number of stretches induced with PBQ, at a dose of 30 mg/kg p.o. at 120 minutes.

With `NC(=O)c1cc(COC(=O)NC2CC3(CCN(c4ccc(-c5ccc(F)cc5)cn4)C3)C2)on1` (mixture of isomers) [Compound 10, 3-Carbamoylisoxazol-5-ylmethyl{6-[5-(4-fluorophenyl)pyridin-2-yl]-6-azaspiro[3.4]oct-2-yl}carbamate], the pIC50 in series [1] was 8.64. Take `CNC(=O)c1cc(COC(=O)NCC2CC3(CCN(c4ccc(-c5ccc(F)cc5)cn4)C3)C2)on1` (single isomer, unassigned) [Compound 12, 3-(Methylcarbamoyl)isoxazol-5-ylmethyl 6-[5-(4-fluorophenyl)pyridin-2-yl]-6-azaspiro[3.4]oct-2-ylmethylcarbamate]: the melting point fell in the range of 171 to 173 °C. The pIC50 in series [1] was 9.07. For the compound `CNC(=O)c1cc(COC(=O)NCC2CC3(CCN(c4ccc(-c5ccc(F)cc5)cn4)C3)C2)on1` (single isomer, unassigned) [Compound 13, 3-(Methylcarbamoyl)isoxazol-5-ylmethyl 6-[5-(4-fluorophenyl)pyridin-2-yl]-6-azaspiro[3.4]oct-2-ylmethylcarbamate], the melting point is 180 to 182 °C.

The compound `CNC(=O)c1cc(COC(=O)NC2CC3(CCN(c4ccc(-c5ccc(F)cc5)cn4)C3)C2)on1` (single isomer, unassigned) [Compound 17, 3-(Methylcarbamoyl)isoxazol-5-ylmethyl{6-[5-(4-fluorophenyl)pyridin-2-yl]-6-azaspiro[3.4]oct-2-yl}carbamate] yielded a melting point of 203 to 205 °C. Regarding `CNC(=O)c1cc(COC(=O)NC2CC3(CCN(c4ccc(-c5ccc(F)cc5)cn4)C3)C2)on1` (single isomer, unassigned) [Compound 18, 3-(Methylcarbamoyl)isoxazol-5-ylmethyl{6-[5-(4-fluorophenyl)pyridin-2-yl]-6-azaspiro[3.4]oct-2-yl}carbamate], the melting point was in the range of 194 to 196 °C.

Consider `NC(=O)c1cc(COC(=O)NC2CC3(CCN(c4ccc(Br)cn4)CC3)C2)on1` [Compound 4, 3-carbamoylisoxazol-5-ylmethyl[7-(5-bromopyridin-2-yl)-7-azaspiro[3.5]non-2-yl]carbamate], for which, in series [1], the pIC50 was 8.09. `NC(=O)c1cc(COC(=O)NC2CC3(CCN(c4ccc(-c5ccc(F)cc5)cn4)CC3)C2)on1` [Compound 5, 3-Carbamoylisoxazol-5-ylmethyl{7-[5-(4-fluorophenyl)pyridin-2-yl]-7-azaspiro[3.5]non-2-yl}carbamate] yielded a melting point of 216 to 218 °C. The “reduction of the number of stretches induced with PBQ” value in series [2] is 50%. As for `NC(=O)c1cc(COC(=O)NCC2CC3(CCN(c4ccc5cc(F)ccc5n4)CC3)C2)on1` [Compound 6, 3-Carbamoylisoxazol-5-ylmethyl[7-(6-fluoroquinolin-2-yl)-7-azaspiro[3.5]non-2-yl]methylcarbamate], the melting point lay in the range of 190 to 192 °C. Also, the pIC50 in series [1] is 9.60. For `CNC(=O)c1cc(COC(=O)NC2CC3(CCN(c4ccc(-c5ccc(F)cc5)cn4)CC3)C2)on1` [Compound 8, 3-(Methylcarbamoyl)isoxazol-5-ylmethyl 7-[5-(4-fluorophenyl)pyridin-2-yl]-7-azaspiro[3.5]non-2-ylcarbamate] the same measures were 219 to 221 °C and 9.14. In the case of `CNC(=O)c1cc(COC(=O)NC2CC3(CCN(c4ccc5cc(Cl)ccc5n4)CC3)C2)on1` [Compound 19, 3-(Methylcarbamoyl)isoxazol-5-ylmethyl[7-(6-chloroquinolin-2-yl)-7-azaspiro[3.5]non-2-yl]carbamate], the pIC50 in series [1] was 8.74. As for `NC(=O)c1cc(COC(=O)NC2CC3(CCN(c4cncc(-c5ccc(F)cc5)n4)CC3)C2)on1` [Compound 25, 3-carbamoylisoxazol-5-ylmethyl{7-[6-(4-fluorophenyl)pyrazin-2-yl]-7-azaspiro[3.5]non-2-yl}carbamate], the pIC50 in series [1] is 8.77. `CC(C)Cc1ccc(N2CCC3(CC2)CC(NC(=O)OCc2cc(C(N)=O)no2)C3)nc1` [Compound 31, 3-Carbamoylisoxazol-5-ylmethyl[7-(5-isobutylpyridin-2-yl)-7-azaspiro[3,5]non-2-yl]carbamate] had a melting point of 178 to 180 °C. For the same compound, the pIC50 in series [1] was 8.37. As to `NC(=O)c1cc(COC(=O)NC2CC23CCN(c2nccc(C(F)(F)F)n2)CC3)on1` (stereo not drawn) [Compound 40, 3-Carbamoylisoxazol-5-ylmethyl[6-(4-trifluoromethylpyrimidin-2-yl)-6-azaspiro[2.5]oct-1-yl]carbamate], the pIC50 in series [1] was 9.30.
